Values of other authors as cited in patent US10918602B2, “Compositions and methods for preparing polymeric films loaded with uniformly distributed drug particles” (New Jersey Institute of Technology, priority 2017, dated 2021).

Settings: literature examples

Row | Compound | Diffusional exponent n
1 | CN1C(=O)CN=C(c2ccccc2)c2cc(Cl)ccc21 [diazepam] | 0.82
2 | COc1ccc2c(c1)c(CC(=O)O)c(C)n2C(=O)c1ccc(Cl)cc1 [indomethacin] | 0.9
